Measurements as given in patent EP4755891A1, “ARF1 INHIBITOR AND USE THEREOF” (AOBIO PHARMACEUTICAL CO., LTD., priority 2023, dated 2025).
“Also recorded” adds a separate entry of the source.

Tests used:
Mouse neuroblastoma N2A = assay: Test for Golgi morphology abnormalities (GM130 immunofluorescence); type: cell-based; conditions: N2A cells; FIG. 4
Procedure: GCA, a known Arf1 inhibitor, was used as a positive control.
Mouse neuroblastoma N2A (N2a, ATCC®CCL-131™) was cultured, treated, and subjected to immunofluorescence staining as previously reported (Wang et al., 2021).

NF-κB signaling pathway = assay: Activation of NF-κB signaling pathway (phosphorylated P65, Western blot); type: cell-based, Murine; conditions: CT26 cells; FIG. 6
Procedure: In this example, Compounds 3 and 9 synthesized in the above preparation examples were tested for their ability to activate the NF-κB signaling pathway, as indicated by an increase of phosphorylated P65. GCA, a known Arf1 inhibitor, was used as a positive control.
In CT26 cells treated with DMSO, GCA, Compound 3, or Compound 9, the relevant protein levels were evaluated by Western blot analysis as previously described (Wang et al., 2020).

CT26 colon cancer [1] = assay: Inhibition of CT26 colon cancer in BALB/c mice (Example 48, 10 mg/kg); type: in vivo; conditions: gavaged daily, two consecutive weeks, FIG. 11
Procedure: In this example, the inhibitory effects of Compounds 28, 30, 31, 33, 34, and DU102 synthesized in the above preparation examples on the growth of colon cancer were tested.
(§1) Murine CT26 cells were inoculated into the left abdomen of 6-week-old male mice at a dose of 5×10^5 cells per mouse. Approximately 7 days later, the mice were randomly divided into two groups: the control group or the compound treatment group. The mice were gavaged daily with either the vehicle control (ddH2O or 5% DMSO in corn oil) or 10 mg/kg of Compounds 28, 30, 31, 33, 34, and DU102 (dissolved in the corresponding vehicle) for two consecutive weeks. Tumor diameters were measured every 2-3 days using a digital caliper (ULINE, Cat^# H-7352), and the tumor volume was calculated using the formula ½ × longitudinal diameter (length) × maximum transverse diameter (width). When the maximum tumor volume reached 3000 mm^3, the mice were euthanized.

CT26 colon cancer [2] = assay: Inhibition of CT26 colon cancer in BALB/c mice (Example 47, 5 mg/kg); type: in vivo; conditions: gavaged daily, two consecutive weeks, FIG. 9 and FIG. 10
Procedure: In this example, the inhibitory effects of Compounds 9, 11-3, 25, 26, 27, and DU102 on colon cancer growth were tested.
as §1, with “group. They” for “group. The mice”, “or 5” for “or 10”, “Compounds 9, 11-3, 25, 26, or 27” for “Compounds 28, 30, 31, 33, 34, and DU102”, “reached 2000” for “reached 3000”

Arf1 = target: T1, Arf1 (Homo sapiens, UniProt P84077); assay: Inhibition test of Arf1 activation (Active Arf1 pull-down and detection kit, Western blot); type: cell-based; conditions: lysate of liver cancer Huh-7 cells; GTP-bound Arf1; FIG. 3
T1 construct: endogenous in cells; host or cells: Huh-7 liver cancer cells (lysate)
Procedure: In this example, the inhibitory ability of Compounds 3 and 9 synthesized in the above preparation examples on Arf1 activation was tested. The Pierce Active Arf1 Pull-Down and Detection Kit (Thermo Scientific, Cat#16121) was used with the lysate of liver cancer Huh-7 cells to detect the activated Arf1. It is a complete kit that selectively enriches and detects GTP-bound Arf1 GTPase through specific protein interactions with the GGA3 protein-binding domain.

CCL5 = assay: Upregulation of chemokine CCL5 expression (quantitative RT-PCR); type: cell-based, Murine; conditions: CT26 cells; FIG. 5
Procedure: In this example, the upregulation of chemokine CCL5 expression induced by the treatment of Compounds 3 and 9 synthesized in the above preparation examples was tested. Quantitative RT-PCR was used to measure the expression level of chemokine CCL5 in CT26 cells treated with DMSO, Compound 3, or Compound 9.

[3] = test system: Drosophila orthotopic tumors; assay: Inhibition of orthotopic tumor growth in Drosophila; type: in vivo; conditions: 5 µM in food, 4 days; Ras^V12-PMML clones; FIG. 7
Procedure: In this example, the inhibitory effects of Compounds 3 and 9 synthesized in the above preparation examples on the growth of Drosophila orthotopic tumors were tested. As previously described, renal stem cell tumor clusters were induced by expressing Ras in Drosophila renal stem cell (Ras^V12-PMML) clones (Singh et al., 2016). The Drosophila carrying Ras^V12-PMML clones were cultured with normal food at room temperature for 4 days to allow tumor growth. They were then switched to food containing the indicated drugs for an additional 4 days, followed by feeding the Drosophila carrying Ras^V12-PMML with normal food containing DMSO or 5 µM Compound 3 or Compound 9. In the indicated groups, the number of esg>GFP + tumor cells per 5×10^3 µm^2 area was quantified to characterize tumor size.

T1 sequence (P84077 whole entry): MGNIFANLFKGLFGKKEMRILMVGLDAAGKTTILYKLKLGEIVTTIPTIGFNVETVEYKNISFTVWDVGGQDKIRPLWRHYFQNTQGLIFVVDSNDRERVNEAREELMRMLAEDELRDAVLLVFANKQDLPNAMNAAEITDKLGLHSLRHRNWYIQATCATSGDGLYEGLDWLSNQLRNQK

Fc1cc(F)c2c(c1)[C@H]1C=CC[C@H]1C(c1cccnc1)N2 (stereo partly shown) [GCA, reference compound] was tested, and the “Golgi morphology (Golgi apparatus defects, distribution of Golgi marker GM130)” value (Mouse neuroblastoma N2A) was “effectively induce morphological changes in the Golgi apparatus” and the “phosphorylation level of P65” value (NF-κB signaling pathway) was “increase the phosphorylation level of P65”.
In the case of Cc1nc2ccc(Nc3ncnc4sc5c(c34)CCNC5)cc2[nH]1 [Compound 28, N-(2-Methyl-1H-benzo[d]imidazol-6-yl)-5,6,7,8-tetrahydropyrido[4',3':4,5]thieno[2,3-d]pyrimidin-4-amine], the “inhibition of CT26 colon cancer” value (CT26 colon cancer [1]) is reported as “effectively inhibit CT26 colon cancer”.
Cc1nc2cc(/C=N/Nc3ncnc4sc5c(c34)CCCCCC5)ccc2[nH]1 [Compound 33, (E)-4-(2-((2-Methyl-1H-benzo[d]imidazol-5-yl)methylene)hydrazinyl)-5,6,7,8,9,10-hexahydrocycloocta[4,5]thieno[2,3-d]pyrimidine] was tested, and the “inhibition of CT26 colon cancer” value (CT26 colon cancer [1]) was “effectively inhibit CT26 colon cancer”.
In the case of Cc1nc2cc(Nc3ncnc4sc5c(c34)CCCCCC5)ccc2[nH]1 [Compound 31, N-(2-Methyl-1H-benzo[d]imidazol-5-yl)-5,6,7,8,9,10-hexahydrocycloocta[4,5]thieno[2,3-d]pyrimidin-4-amine], the “inhibition of CT26 colon cancer” value (CT26 colon cancer [1]) is reported as “effectively inhibit CT26 colon cancer”.
In the case of Cc1nc2ccc(Nc3ncnc4scc(C)c34)cc2[nH]1 [Compound 25, 5-Methyl-N-(2-methyl-1H-benzo[d]imidazol-6-yl)thieno[2,3-d]pyrimidin-4-amine], the “inhibition of CT26 colon cancer” value (CT26 colon cancer [2]) is reported as “effectively inhibit CT26 colon cancer”.
Cn1cnc2cc(Nc3ncnc4sc5c(c34)CCN(C(=O)c3ccc(Cl)s3)C5)ccc21 [Compound 26, (5-Chlorothiophen-2-yl)(4-((1-methyl-1H-benzo[d]imidazol-5-yl)amino)-5,8-dihydropyrido[4',3':4,5]thieno[2,3-d]pyrimidin-7(6H)-yl)methanone] was tested, and the “inhibition of CT26 colon cancer” value (CT26 colon cancer [2]) was “effectively inhibit CT26 colon cancer”.
With “N-(1H-Indol-5-yl)-methylthieno[2,3-d]pyrimidin-4-amine [Compound 3]” the “inhibition of Arf1 activation” value (Arf1) was “effectively inhibit the activation of Arf1; also recorded: effective inhibitors”, the “Golgi morphology (Golgi apparatus defects, distribution of Golgi marker GM130)” value (Mouse neuroblastoma N2A) was “induce Golgi apparatus defects; also recorded: effectively induce morphological changes in the Golgi apparatus” and the “expression of the chemokine CCL5” value (CCL5) was “effectively promote the expression”. For the same compound, the “phosphorylation level of P65” value (NF-κB signaling pathway) was “increase the phosphorylation level of P65” and the “orthotopic tumor growth in Drosophila” value [3] was “effectively inhibit orthotopic tumor growth”.
With CC(=O)N1CCc2c(sc3ncnc(Nc4ccc5nc(C)[nH]c5c4)c23)C1 [Compound 30, 1-(4-((2-Methyl-1H-benzo[d]imidazol-6-yl)amino)-5,8-dihydropyrido[4',3':4,5]thieno[2,3-d]pyrimidin-7(6H)-yl)ethanone] the “inhibition of CT26 colon cancer” value (CT26 colon cancer [1]) was “effectively inhibit CT26 colon cancer”.
